In the oligonucleotide strings, read from the 5' end, every base follows the letter of its sugar. An asterisk marks phosphorothioate; unmarked linkages are phosphodiester. Other units and linkages are bracketed, terminal groups are in braces. A string of capitals states the bases alone. e = 2'-O-(2-methoxyethyl) (MOE); [5mC] = 5-methylcytosine
Columns and labels:
Assay type in all cases: cell-based, human
PPARγ = PPARγ mRNA expression in adipocytes (real-time PCR)
aP2 = aP2 mRNA expression in adipocytes (real-time PCR); settings: for aP2 mRNA: differentiating adipocytes transfected with oligomeric compound, Table 75; for AP2 mRNA: differentiating adipocytes, control = treatment with ISIS 342673
HSL = HSL mRNA expression in adipocytes (real-time PCR)
Glut4 = Glut4 mRNA expression in adipocytes (real-time PCR)
adipocytes = experiment: Triglyceride accumulation assay in adipocytes
[1] = differentiating adipocytes transfected with oligomeric compound, Table 75
[2] = Table 18, differentiating adipocytes, control = treatment with ISIS 342673
[3] = Table 17, differentiating adipocytes, control = treatment with ISIS 342673

Row | Substance | PPAR gamma mRNA (PPARγ; [1]) | aP2 mRNA (aP2) | HSL mRNA (HSL; [1]) | GLUT4 mRNA (Glut4; [1]) | TG (triglyceride accumulation) (adipocytes; [1]) | PPAR gamma mRNA (PPARγ; [2]) | AP2 mRNA (aP2; Table 18) | HSL mRNA (HSL; [2]) | GLUT4 mRNA (Glut4; [2]) | TG (triglyceride accumulation) (adipocytes; [2]) | PPAR gamma mRNA (PPARγ; [3]) | AP2 mRNA (aP2; Table 17) | HSL mRNA (HSL; [3]) | GLUT4 mRNA (Glut4; [3]) | TG (triglyceride accumulation) (adipocytes; [3])
1 | 327972 (antisense eA*e[5mC]*eT*e[5mC]*eA*e[5mC]*e[5mC]*eG*eA*e[5mC]*eA*eG*eG*eT*eT*eG*eA*eA*eT*eG*eT*eT) [compound 327972] | 85 percentage of untreated control (UTC) | 70 percentage of untreated control (UTC) | 70 percentage of untreated control (UTC) | 75 percentage of untreated control (UTC) | 67 percentage of untreated control (UTC) |  |  |  |  |  |  |  |  |  | 
2 | 328099 (antisense eA*eA*eG*eA*eA*e[5mC]*eA*eT*eT*eA*eA*eG*e[5mC]*eA*eT*e[5mC]*eT*eG*eA*e[5mC]*eA) [compound 328099] | 72 percentage of untreated control (UTC) | 80 percentage of untreated control (UTC) | 74 percentage of untreated control (UTC) | 61 percentage of untreated control (UTC) | 57 percentage of untreated control (UTC) | 81.9 percentage of control | 85.9 percentage of control | 88.4 percentage of control | 86.8 percentage of control | 93.9 percentage of control |  |  |  |  | 
3 | 328128 (antisense eA*eG*eT*eA*eA*e[5mC]*eT*eT*e[5mC]*eT*eT*eG*e[5mC]*eA*eG*eT*eT*eG*eG*eA) [compound 328128] | 86 percentage of untreated control (UTC) | 90 percentage of untreated control (UTC) | 72 percentage of untreated control (UTC) | 73 percentage of untreated control (UTC) | 61 percentage of untreated control (UTC) |  |  |  |  |  | 84.0 percentage of control | 100.7 percentage of control | 94.1 percentage of control | 101.9 percentage of control | 98.7 percentage of control
4 | 328130 (antisense eA*e[5mC]*e[5mC]*eT*e[5mC]*eA*eG*eG*eT*eG*eG*eT*eT*eG*eA*eA*eG*eG*eA*eG*eA) [compound 328130] | 77 percentage of untreated control (UTC) | 72 percentage of untreated control (UTC) | 64 percentage of untreated control (UTC) | 55 percentage of untreated control (UTC) | 91 percentage of untreated control (UTC) |  |  |  |  |  | 99.4 percentage of control | 86.6 percentage of control | 76.5 percentage of control | 83.8 percentage of control | 122.4 percentage of control
5 | 346920 (AGCAAAAAUGUGCUAGUGCCAAA; all 2'-MOE, all phosphorothioate, methylation of C and T or U not given here) [compound 346920] | 70 percentage of untreated control (UTC) | 70 percentage of untreated control (UTC) | 53 percentage of untreated control (UTC) | 61 percentage of untreated control (UTC) | 63 percentage of untreated control (UTC) |  |  |  |  |  |  |  |  |  | 
6 | 340358 (antisense CAGCUAUGCCAGCAUCUUGCC; all 2'-MOE, all phosphorothioate, methylation of C and T or U not given here) [compound 340358] | 42 percentage of untreated control (UTC) | 47 percentage of untreated control (UTC) | 24 percentage of untreated control (UTC) | 21 percentage of untreated control (UTC) | 23 percentage of untreated control (UTC) |  |  |  |  |  |  |  |  |  | 
7 | 344276 (antisense CAGGCAUAGGAUGACAAAGGGAA; all 2'-MOE, all phosphorothioate, methylation of C and T or U not given here) [compound 344276] | 72 percentage of untreated control (UTC) | 72 percentage of untreated control (UTC) | 68 percentage of untreated control (UTC) | 49 percentage of untreated control (UTC) | 66 percentage of untreated control (UTC) |  |  |  |  |  |  |  |  |  | 
8 | TNF-alpha |  |  |  |  |  | 27.9 percentage of control | 9.6 percentage of control | 3.1 percentage of control | 1.9 percentage of control | 14.5 percentage of control | 18.8 percentage of control | 5.5 percentage of control | 0.7 percentage of control | 0.5 percentage of control | 10.0 percentage of control
9 | 344275 (antisense UCUAGUGGUCCUAAACAUUUCA; all 2'-MOE, all phosphorothioate, methylation of C and T or U not given here) [compound 344275] | 46 percentage of untreated control (UTC) | 36 percentage of untreated control (UTC) | 39 percentage of untreated control (UTC) | 21 percentage of untreated control (UTC) | 36 percentage of untreated control (UTC) |  |  |  |  |  |  |  |  |  | 
10 | 328121 (antisense eA*eT*eG*eA*e[5mC]*eT*eA*e[5mC]*eA*eA*eG*eT*eT*eT*eA*eT*eG*eG*e[5mC]*e[5mC]*eA) [compound 328121] | 105 percentage of untreated control (UTC) | 119 percentage of untreated control (UTC) | 110 percentage of untreated control (UTC) | 115 percentage of untreated control (UTC) | 119 percentage of untreated control (UTC) |  |  |  |  |  | 103.6 percentage of control | 127.0 percentage of control | 126.0 percentage of control | 140.8 percentage of control | 134.8 percentage of control
11 | 348117 (GAACCCACAAUCCCUGGCUUA; all 2'-MOE, all phosphorothioate, methylation of C and T or U not given here) [compound 348117] | 65 percentage of untreated control (UTC) | 70 percentage of untreated control (UTC) | 55 percentage of untreated control (UTC) | 73 percentage of untreated control (UTC) | 66 percentage of untreated control (UTC) |  |  |  |  |  |  |  |  |  | 
12 | 340360 (antisense GCAACUUAGUAAUGUGCAAUA; all 2'-MOE, all phosphorothioate, methylation of C and T or U not given here) [compound 340360] | 96 percentage of untreated control (UTC) | 102 percentage of untreated control (UTC) | 102 percentage of untreated control (UTC) | 91 percentage of untreated control (UTC) | 106 percentage of untreated control (UTC) |  |  |  |  |  |  |  |  |  | 
13 | 348119 (UCCAUAAAGUAGGAAACACUACA; anti-miR; all 2'-MOE, all phosphorothioate, methylation of C and T or U not given here) [compound 348119] | 90 percentage of untreated control (UTC) | 81 percentage of untreated control (UTC) | 76 percentage of untreated control (UTC) | 86 percentage of untreated control (UTC) | 91 percentage of untreated control (UTC) |  |  |  |  |  |  |  |  |  | 
14 | 328100 (antisense eA*eA*eT*e[5mC]*eT*e[5mC]*eT*eG*e[5mC]*eA*eG*eG*e[5mC]*eA*eA*eA*eT*eG*eT*eG*eA) [compound 328100] | 48 percentage of untreated control (UTC) | 47 percentage of untreated control (UTC) | 49 percentage of untreated control (UTC) | 39 percentage of untreated control (UTC) | 20 percentage of untreated control (UTC) | 66.7 percentage of control | 61.9 percentage of control | 72.0 percentage of control | 74.2 percentage of control | 71.5 percentage of control |  |  |  |  | 
